Experimental data reported in patent US20230079389A1, “COMPOSITION FOR USE IN PREVENTION OR TREATMENT OF OESOPHAGEAL DISEASES LINKED TO EPITHELIAL BARRIER DEFECTS” (THELIAL B.V., priority 2020, published 2023).
Like-named read-outs stand apart in the source and are kept apart here.

Experiments:
Par6 = experiment: theLiTE assay: distribution of GFP-tagged Par6 in live follicular epithelia; conditions: for Par6 modulation (distribution of Par6 protein): live follicular epithelia of Drosophila egg chamber, Par6-GFP
Source text: The present inventors used a unique approach in order to identify compounds which reinforce the TJ system via the control of TJ initiation. Par6 was selected as the biological target; it acts as a regulator of tight junction initiation. Par6 has a polar distribution, with a defined zone of high abundance at one end of the cell. This Par6 distribution is key to the biological function, not just the absolute Par6 protein level.
Standard tools for RNA and protein level measurement are not adequate to discover compounds which target Par6 and the present inventors devised and implemented an assay where the distribution of Par6 in living tissues can be monitored: Thelial Live Targeted Epithelia (theLiTE™; U.S. Pat. No. 9,416,391).
The technology of theLITE™ allows monitoring the distribution of Par6—an intracellular protein that controls tight junction assembly. The assay was performed in live follicular epithelia of the egg chamber of the fruit fly Drosophila. Par6 was tagged with a green fluorescence protein (GFP) and its distribution within the cell was monitored by the GFP signal. […] This protein distribution is key to the biological function, not just the absolute protein level.
In theLiTE, the present inventors tested whether compounds modulate the distribution of Par6 protein in live follicular epithelia. In theLiTE more than 20 live egg chambers were exposed to test each compound and monitored for Par6 distribution after a set incubation time; any positive compounds were tested in three separate runs of experiments and over a broad range of concentrations. The full method is disclosed in the US patent document. […] The positive control in FIG. 2, indicated with a “+” sign, is Antimycin A, at a concentration of 40 micromolar. The negative control, indicated with a “−” sign is the solvent medium (Insect cell culture medium plus 10% dimethyl sulfoxide).

[1] = system: subjects suffering from GERD; experiment: 6-weeks treatment of GERD subjects, synergy between active compounds; type: in vivo, human; conditions: for subjects reporting reduction in severity of GERD, as well as reduced usage of PPIs: 500 mg twice daily oral, 14 patients per group; for effect on GERD (in words): twice daily oral
Description: In a 6-weeks treatment, 50 subjects suffering from GERD receive a twice daily oral dose (1 hour before the morning and the evening meal) with either • Quercetin (500 mg); • Myricetin (500 mg); • Quercetin (500 mg) and Myricetin (500 mg); • Quercetin (500 mg) and Genistein (300 mg); • Myricetin (500 mg) and Berberine (750 mg).

[2] = system: patients with non-erosive Gastro esophageal Reflux Disease (GERD); conditions: cited from earlier work

Compound: COc1ccc2cc3[n+](cc2c1OC)CCc1cc2c(cc1-3)OCO2 [Berberine, 5,6-dihydro-9,10-dimehtoxybenzo[g]-1,3-benzodioxolo[5,6-a]quinolizinium]
- Par6 modulation (distribution of Par6 protein) (Par6): do not modulate Par6

Compound: O=c1c(-c2ccc(O)cc2)coc2cc(O)cc(O)c12 [Genistein, 5,7-dihydro-3-(4-hydroxyphenyl)chromen-4-one]
- Par6 modulation (distribution of Par6 protein) (Par6): do not modulate Par6

Compound: O=c1c(O)c(-c2cc(O)c(O)c(O)c2)oc2cc(O)cc(O)c12 [Myricetin, 3,5,7-Trihydroxy-2-(3,4,5-trihydroxyphenyl)-4H-1-benzopyran-4-one]
- subjects reporting reduction in severity of GERD, as well as reduced usage of PPIs [1]: 10 subjects report reduction in severity of GERD,
- effect on GERD (in words) [1]: reduction of GERD severity
- Par6 modulation (distribution of Par6 protein) (Par6): potent Par6 modulation
- toxicity (Par6; screen of over 2000 compounds): low toxicity

Compound: O=c1c(O)c(-c2ccc(O)c(O)c2)oc2cc(O)cc(O)c12 [Quercetin, 2-(3,4-dihydroxyphenyl)-3,5,7-trihydroxychromen-4-one]
- subjects reporting reduction in severity of GERD, as well as reduced usage of PPIs [1]: 12 subjects report reduction in severity of GERD,
- effect on GERD (in words) [1]: reduction of GERD severity
- toxicity (Par6): low toxicity
- Par6 modulation (distribution of Par6 protein) (Par6): potent Par6 modulation
- esophageal epithelial barrier function, resistance to injury upon contact with hydrochloric acid ([2]; 500 mg orally twice daily (tablet) for 6 weeks, endoscopic biopsies before and after): increases esophageal epithelial barrier function
- heartburn symptom improvement ([2]; 14 GERD sufferers, twice 500 mg daily, 6-week period): no report of consistent effects

Compound: Antimycin A [reference compound]
- Par6 modulation (distribution of Par6 protein) (Par6): most potent compound in the test
- toxicity (Par6; screen of over 2000 compounds): toxic
